In brackets after ≈: the same amount, converted by molar mass.
Columns and labels:
[1] = Alkylating activity of the compound in aqueous acetone solution assessed as half life of compound-NBP adduct formation after 30 mins by UV-Vis spectrophotometric analysis; assay type: physicochemical; details: buffer, 0.5 h
[2] = tested on: COLO 205; assay: Cytotoxicity against human COLO205 cells after 72 hrs by MTT assay; assay type: functional, cell-based; details: COLO 205, 72 h
[3] = tested on: A549; assay: Cytotoxicity against human A549 cells after 72 hrs by MTT assay; assay type: functional, cell-based; details: A549, 72 h
[4] = Cytotoxicity against human U87 cells after 72 hrs by MTT assay; assay type: functional, cell-based, U-87MG ATCC; details: U-87 MG
[5] = tested on: IMR-32; assay: Cytotoxicity against human IMR32 cells after 72 hrs by MTT assay; assay type: functional, cell-based; details: IMR-32, 72 h

| Structure (SMILES) | t1/2 [1] [min] | IC50 [2] [µg/mL] | IC50 [3] [µg/mL] | IC50 [4] [µg/mL] | IC50 [5] [µg/mL] |
| --- | --- | --- | --- | --- | --- |
| O=C(CN(CCCl)CCCl)Nc1ccc(Cl)cc1C(=O)c1ccc(Cl)cc1 | 8.9 | 28.7 (≈ 64 µM) | 37.3 (≈ 83.3 µM) | 27.1 (≈ 60.5 µM) | 31.1 (≈ 69.5 µM) |
| O=C(CN(CCCl)CCCl)Nc1ccc(Cl)cc1C(=O)c1ccccc1Cl | 10.3 | 32.6 (≈ 72.7 µM) | 34.6 (≈ 77.3 µM) | 24.5 (≈ 54.7 µM) | 30.8 (≈ 68.8 µM) |
| O=C(CN(CCCl)CCCl)Nc1ccc([N+](=O)[O-])cc1C(=O)c1ccc(Cl)cc1 | 8.4 | 38.9 (≈ 84.9 µM) | 36.7 (≈ 79.9 µM) | 23.3 (≈ 50.7 µM) | 28.4 (≈ 61.9 µM) |
| O=C(CN(CCCl)CCCl)Nc1ccc([N+](=O)[O-])cc1C(=O)c1ccccc1 | 11.8 | 32.9 (≈ 77.5 µM) | 64.8 (≈ 153 µM) | 29.5 (≈ 69.4 µM) | 33.2 (≈ 78.2 µM) |
| O=C(O)CCCc1ccc(N(CCCl)CCCl)cc1 [CHLORAMBUCIL] |  | 26.7 (≈ 87.7 µM) | 21.1 (≈ 69.3 µM) | 18.8 (≈ 61.9 µM) | 20.1 (≈ 66 µM) |
| CC(=O)O[C@@]12CO[C@@H]1C[C@H](O)[C@@]1(C)C(=O)[C@H](O)C3=C(C)[C@@H](OC(=O)[C@H](O)[C@@H](NC(=O)OC(C)(C)C)c4ccccc4)C[C@@](O)([C@@H](OC(=O)c4ccccc4)[C@H]21)C3(C)C.O.O.O [DOCETAXEL] |  | 30.7 | 27.3 | 20.7 | 23.7 |
| O=C(CN(CCCl)CCCl)Nc1ccc([N+](=O)[O-])cc1C(=O)c1ccccc1Cl | 9.5 | 33.4 (≈ 72.8 µM) | 64.8 (≈ 141 µM) | 43.7 (≈ 95.4 µM) | 31.4 (≈ 68.4 µM) |
| O=C(CN(CCCl)CCCl)Nc1ccc(Cl)cc1C(=O)c1ccccc1 | 13.3 | 52.3 (≈ 126 µM) | 37.1 (≈ 89.7 µM) | 29 (≈ 70.1 µM) | 29.4 (≈ 71 µM) |
